The record followed here is the supplement of paper PMC11061612.

Common to all, as to experiment: Bliss excess, mean over the matrix (fraction); higher = more synergy
For experiment [1], the system named is ALL-PO (B-Lymphoblastic Leukemia). In a few lines:
(§1)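 Cell lines in DMEM/F12 or RPMI with 10% FBS were plated in 1536-well plates, held 24 hours at 37°C, 5% CO2, then given two-drug dose matrices for 72 hours (DMSO typically 0.2%). Viability was read by CellTiter-Glo 2.0 luminescence and scaled as inhibition from 0 (vehicle wells) to 1 (blank wells). Combination Emax is the second-highest inhibition in the matrix; Bliss excess is observed combination effect minus expected EA + EB − EA·EB, EA and EB being single-agent effects.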

Experiment [2] concerns BE-13 (T-Lymphoblastic Leukemia). Summed up:
as §1

For experiment [3], the system named is BE2-M17 (Neuroblastoma). In a few lines: as §1
The subject of experiment [4] is BPH-1 (Non-Cancerous). In a few lines:
as §1

Experiment [5] has as its system CAL-72 (Osteosarcoma). In a few lines:
as §1

Experiment [6] has as its system EW-11 (Ewing's Sarcoma). In a few lines: as §1
For experiment [7], the system named is GAMG (Glioblastoma). Summed up: as §1
Experiment [8] concerns HH (T-Cell Non-Hodgkin's Lymphoma). Summed up:
as §1

The subject of experiment [9] is HeLa (Cervical Carcinoma). In a few lines:
as §1

The subject of experiment [10] is HuCCT1 (Biliary Tract Carcinoma). In a few lines: as §1
Experiment [11] concerns HuH-7 (Hepatocellular Carcinoma). Summed up: as §1
Experiment [12] has as its system L-428 (Hodgkin's Lymphoma). In a few lines: as §1
For experiment [13], the system named is LCLC-97TM1 (Non-Small Cell Lung Carcinoma). In a few lines: as §1
In experiment [14] the test system is LS-123 (Colorectal Carcinoma). In a few lines:
as §1

In experiment [15] the test system is MPP-89 (Mesothelioma). In a few lines:
as §1

Experiment [16] concerns NCI-H2052 (Mesothelioma). In a few lines:
as §1

In experiment [17] the test system is NCI-H2722 (Mesothelioma). In a few lines:
as §1

Experiment [18] has as its system NCI-H524 (Small Cell Lung Carcinoma). In a few lines: as §1
Experiment [19] has as its system OV-56 (Ovarian Carcinoma). Summed up:
as §1

Experiment [20] deals with SNU-449 (Hepatocellular Carcinoma). In a few lines:
as §1

Take `Cc1c2c(nn1C)CSCc1cc(n(C)n1)CSc1cc(c3ccccc3c1)OCCCc1c(C(=O)O)n(C)c3c-2c(Cl)ccc13` [AZD5991] + Cc1cc2ncnn2cc1Nc1ncc2c(n1)n(C1CCOCC1)c(=O)n2C [AZD7648] (first compound max 1 µM, 7x7, partner max 10 µM): the Bliss excess in experiment [1] is -0.0304; in [2] it was 0.0066; in experiment [3], -0.0159; in [4], -0.0632; in experiment [5], -0.0475; in [6], -0.0197. The Bliss excess is -0.0321 in experiment [7]; -0.0536 in experiment [8]; 0.0021 in experiment [9]; -0.032 in experiment [10]; -0.0408 in experiment [11]; 0.0455 in [12]. Besides, the Bliss excess is -0.0015 in experiment [13]; -0.0378 in experiment [14]; 0.0158 in experiment [15]; -0.0556 in [16]; -0.0785 in experiment [17]; -0.016 in experiment [18]. Further, the Bliss excess in [19] was -0.0059; in [20], -0.0453.

As to `Cc1c2c(nn1C)CSCc1cc(n(C)n1)CSc1cc(c3ccccc3c1)OCCCc1c(C(=O)O)n(C)c3c-2c(Cl)ccc13` [AZD5991] + Cn1cnc2c(F)c(Nc3ccc(Br)cc3Cl)c(C(=O)NOCCO)cc21 [Selumetinib] (first compound max 1 µM, 7x7, partner max 3 µM), the Bliss excess is 0.0056 in [1]; 0.0415 in [2]; 0.0436 in [3]; 0.0216 in [4]; 0.0483 in [5]; -0.0106 in [6]. Further, the Bliss excess in [7] is 0.0368; in experiment [8], -0.0664; in [9], -0.004; in experiment [10], 0.0339; in experiment [11] it was -0.0361; in [12], 0.0018. In addition, the Bliss excess in experiment [13] is 0.0506; in experiment [14], 0.0196; in experiment [15], -0.0188; in experiment [16], 0.0301; in experiment [17], 0.0081; in [18], -0.0129. For the same molecule, the Bliss excess is 0.0034 in experiment [19] and -0.0846 in [20].

On to `C[C@@H]1COCCN1c1cc(C2([S@](C)(=N)=O)CC2)nc(-c2ccnc3[nH]ccc23)n1` [AZD6738] + O=C(c1cc(Cc2n[nH]c(=O)c3ccccc23)ccc1F)N1CCN(C(=O)C2CC2)CC1 [Olaparib] (first compound max 10 µM, 7x7, partner max 10 µM), for which the Bliss excess in experiment [1] is 0.018; in experiment [2] it was 0.0278; in experiment [3] it was -0.0176; in experiment [4], 0.0283; in experiment [5], -0.0183; in experiment [6], -0.014. Also, the Bliss excess in [7] is -0.0461; in experiment [8], -0.0082; in experiment [9] it was 0.0497; in experiment [10], -0.0264; in [11], 0.0569; in experiment [12], 0.0227. The Bliss excess in [13] was -0.0539; in experiment [14], 0.0192; in experiment [15] it was 0.0055; in [16] it was 0.026; in [17], 0.0087; in experiment [18], 0.0196. Also, the figures for the Bliss excess in experiment [19] and in experiment [20] were -0.0159 and 0.0007, respectively.

As to `NC1(C(=O)N[C@@H](CCO)c2ccc(Cl)cc2)CCN(c2ncnc3[nH]ccc23)CC1` [Capivasertib] + CC(=O)c1c(C)c2cnc(Nc3ccc(N4CCNCC4)cn3)nc2n(C2CCCC2)c1=O [Palbociclib] (first compound max 10 µM, 7x7, partner max 10 µM), the Bliss excess was -0.0252 in experiment [1]; -0.0485 in [2]; 0.0059 in [3]; -0.0574 in experiment [4]; 0.0236 in [5]; 0.0121 in [6]. The Bliss excess in experiment [7] was 0.0237; in experiment [8], -0.0305; in experiment [9] it was -0.0661; in [10] it was -0.0067; in experiment [11] it was 0.0124; in experiment [12] it was -0.0092. Also, the Bliss excess is 0.0152 in experiment [13]; -0.0026 in experiment [14]; -0.0553 in [15]; -0.0171 in experiment [16]; -0.0436 in experiment [17]; 0.0047 in experiment [18]. Besides, the figures for the Bliss excess in experiment [19] and in [20] were 0.0301 and 0.001, respectively.

With `NC1(C(=O)N[C@@H](CCO)c2ccc(Cl)cc2)CCN(c2ncnc3[nH]ccc23)CC1` [Capivasertib] + CC(C)n1c(=O)n(C)c2cnc3cc(F)c(-c4ccc(OCCCN5CCCCC5)nc4)cc3c21 [AZD1390] (first compound max 10 µM, 7x7, partner max 0.3 µM), the Bliss excess in experiment [1] is -0.0382; in experiment [2], -0.0455; in experiment [3] it was -0.115; in [4], -0.0842; in [5], -0.133; in experiment [6], -0.0438. In addition, the Bliss excess in experiment [7] was -0.0455; in experiment [8], -0.0327; in experiment [9] it was -0.0537; in [10], -0.0447; in experiment [11], -0.045; in experiment [12], -0.0352. Besides, the Bliss excess was -0.0278 in experiment [13]; -0.0493 in experiment [14]; -0.0069 in experiment [15]; -0.095 in experiment [16]; -0.0512 in [17]; -0.0033 in experiment [18]. Also, the values for the Bliss excess in [19] and in experiment [20] were -0.044 and -0.038, respectively.

Regarding `NC1(C(=O)N[C@@H](CCO)c2ccc(Cl)cc2)CCN(c2ncnc3[nH]ccc23)CC1` [Capivasertib] + CCN(CCO)CCCOc1ccc2c(Nc3cc(CC(=O)Nc4cccc(F)c4)[nH]n3)ncnc2c1 [AZD2811] (first compound max 10 µM, 7x7, partner max 1 µM), the Bliss excess in [1] was -0.0254; in experiment [2] it was -0.0125; in experiment [3] it was -0.043; in experiment [4], 0.0118; in [5], 0.002; in experiment [6], 0.0737. Further, the Bliss excess is -0.0737 in experiment [7]; -0.0221 in [8]; -0.0411 in [9]; 0.0051 in experiment [10]; -0.0168 in experiment [11]; 0.0098 in experiment [12]. In addition, the Bliss excess in experiment [13] was 0.0429; in experiment [14], -0.0179; in [15] it was -0.0481; in experiment [16] it was 0.0076; in [17], -0.0044; in experiment [18], 0.0113. For the same molecule, the Bliss excess in [19] is -0.0077; in [20], -0.0166.

With `NC1(C(=O)N[C@@H](CCO)c2ccc(Cl)cc2)CCN(c2ncnc3[nH]ccc23)CC1` [Capivasertib] + COc1nnc2ccc(N3CCC(c4ccc(OCCN5CCN(C)C(=O)[C@H]5C)cc4)CC3)nn12 [AZD5153] (first compound max 10 µM, 7x7, partner max 1 µM), the Bliss excess in [1] was -0.0116; in experiment [2], -0.0281; in experiment [3], 0.0666; in experiment [4], -0.0542; in experiment [5], 0.005; in experiment [6], 0.115. Further, the Bliss excess in experiment [7] was 0.039; in [8], 0.0022; in experiment [9], -0.0021; in experiment [10] it was 0.0113; in experiment [11], -0.0061; in experiment [12], -0.0239. Further, the Bliss excess in [13] is 0.0079; in [14], 0.0517; in experiment [15], -0.0632; in experiment [16], 0.0133; in experiment [17], 0.0016; in [18], -0.0155. The Bliss excess in [19] came to 0.0506; in experiment [20], 0.0058.
